Results on two compounds are retold here after article PMC12723682, “Ligand-Directed Self-Assembling Chimeras for Targeted Protein O‑GlcNAcylation” (ACS Chemical Biology, 2025).

Molecules are shown by their SMILES.

Usually Kd stands for the free concentration of one partner at which half of the binding sites on the other are occupied at equilibrium, for simple one-to-one binding. Low readings indicate tighter binding, high ones weaker binding.

The target in test [1] is T1, O-GlcNAc transferase (OGT) (Homo sapiens, UniProt O15294).
T1 sequence (O15294 2-1046): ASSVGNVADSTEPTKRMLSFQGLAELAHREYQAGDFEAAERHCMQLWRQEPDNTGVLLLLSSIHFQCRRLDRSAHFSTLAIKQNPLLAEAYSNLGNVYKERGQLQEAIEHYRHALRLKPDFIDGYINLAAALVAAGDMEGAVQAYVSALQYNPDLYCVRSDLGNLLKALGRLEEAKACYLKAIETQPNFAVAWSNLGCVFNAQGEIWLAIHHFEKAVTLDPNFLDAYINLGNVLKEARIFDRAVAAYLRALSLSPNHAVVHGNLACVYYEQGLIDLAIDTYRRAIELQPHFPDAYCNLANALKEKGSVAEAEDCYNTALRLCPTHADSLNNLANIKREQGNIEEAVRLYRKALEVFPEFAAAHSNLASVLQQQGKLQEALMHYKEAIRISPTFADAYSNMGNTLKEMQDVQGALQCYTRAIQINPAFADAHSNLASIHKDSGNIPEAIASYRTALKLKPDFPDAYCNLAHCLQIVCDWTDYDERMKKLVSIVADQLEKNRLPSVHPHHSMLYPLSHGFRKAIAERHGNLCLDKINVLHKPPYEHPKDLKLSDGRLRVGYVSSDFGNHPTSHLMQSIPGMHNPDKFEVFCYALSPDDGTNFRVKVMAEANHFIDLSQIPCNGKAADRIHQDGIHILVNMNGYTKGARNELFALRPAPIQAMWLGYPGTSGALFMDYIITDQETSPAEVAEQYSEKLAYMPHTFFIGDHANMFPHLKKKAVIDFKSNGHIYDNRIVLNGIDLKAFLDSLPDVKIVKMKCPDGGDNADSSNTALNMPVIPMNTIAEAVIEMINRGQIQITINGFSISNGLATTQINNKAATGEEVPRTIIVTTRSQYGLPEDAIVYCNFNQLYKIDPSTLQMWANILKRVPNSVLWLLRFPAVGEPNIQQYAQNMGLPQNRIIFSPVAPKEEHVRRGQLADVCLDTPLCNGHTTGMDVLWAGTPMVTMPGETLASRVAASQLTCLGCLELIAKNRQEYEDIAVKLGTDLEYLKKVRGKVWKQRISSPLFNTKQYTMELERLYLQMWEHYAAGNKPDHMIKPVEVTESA
The test is described as follows: SPR steady-state affinity on immobilized OGT; also in-gel covalent labelling of purified OGT, competed by OSMI-4. It is filed as binding.

Test [2] addresses T1, O-GlcNAc transferase (OGT). The test is described as follows: SPR, confirmed by MST; also in-gel covalent labelling of purified OGT, competed by OSMI-4. Type of test: binding. For orientation: Surface plasmon resonance follows binding to a sensor surface in real time, without labels.

`C#CCCCCC(=O)N(CC#N)S(=O)(=O)c1cc2ccc(=O)[nH]c2cc1Cl` [7a]: in test [1], binding was put at a Kd of 2 µM.

In test [2], `C#CCCCCC(=O)N(CC#N)S(=O)(=O)c1ccc2[nH]c(=O)ccc2c1` [8a] had a Kd of 28.3 µM.
